Measurements as given in patent US9637483B2, “Heterocyclic compound” (TAKEDA PHARMACEUTICAL COMPANY LIMITED, priority 2013, dated 2017).

Experiments:
Format in all cases: biochemical
JAK1 = biological target: T1, JAK1 (Homo sapiens, UniProt P23458); assay: JAK1 enzyme inhibition test (LANCE method); details: 1 μM test compound; for inhibition at 1 µM: read-out: JAK1 enzyme inhibitory activity (%, 1 μM)
T1 construct: purchased Invitrogen
In short: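 Inhibition expressed against no-enzyme wells (100% inhibition), from time-resolved fluorescence at 665 nm after Eu-anti-phosphotyrosine antibody/EDTA detection. Kinase reaction ran 1 h at room temperature, pH 7.5 HEPES buffer, ULight-JAK1 substrate and ATP diluted to 300 nM and 150 μM before addition.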

JAK2 = biological target: T2, JAK2 (Homo sapiens, UniProt O60674); assay: JAK2 enzyme inhibition test (LANCE method); details: 1 μM test compound; for inhibition at 1 µM: read-out: JAK2 enzyme inhibitory activity (%, 1 μM)
T2 construct: purchased Invitrogen
T2 sequence (O60674 whole entry): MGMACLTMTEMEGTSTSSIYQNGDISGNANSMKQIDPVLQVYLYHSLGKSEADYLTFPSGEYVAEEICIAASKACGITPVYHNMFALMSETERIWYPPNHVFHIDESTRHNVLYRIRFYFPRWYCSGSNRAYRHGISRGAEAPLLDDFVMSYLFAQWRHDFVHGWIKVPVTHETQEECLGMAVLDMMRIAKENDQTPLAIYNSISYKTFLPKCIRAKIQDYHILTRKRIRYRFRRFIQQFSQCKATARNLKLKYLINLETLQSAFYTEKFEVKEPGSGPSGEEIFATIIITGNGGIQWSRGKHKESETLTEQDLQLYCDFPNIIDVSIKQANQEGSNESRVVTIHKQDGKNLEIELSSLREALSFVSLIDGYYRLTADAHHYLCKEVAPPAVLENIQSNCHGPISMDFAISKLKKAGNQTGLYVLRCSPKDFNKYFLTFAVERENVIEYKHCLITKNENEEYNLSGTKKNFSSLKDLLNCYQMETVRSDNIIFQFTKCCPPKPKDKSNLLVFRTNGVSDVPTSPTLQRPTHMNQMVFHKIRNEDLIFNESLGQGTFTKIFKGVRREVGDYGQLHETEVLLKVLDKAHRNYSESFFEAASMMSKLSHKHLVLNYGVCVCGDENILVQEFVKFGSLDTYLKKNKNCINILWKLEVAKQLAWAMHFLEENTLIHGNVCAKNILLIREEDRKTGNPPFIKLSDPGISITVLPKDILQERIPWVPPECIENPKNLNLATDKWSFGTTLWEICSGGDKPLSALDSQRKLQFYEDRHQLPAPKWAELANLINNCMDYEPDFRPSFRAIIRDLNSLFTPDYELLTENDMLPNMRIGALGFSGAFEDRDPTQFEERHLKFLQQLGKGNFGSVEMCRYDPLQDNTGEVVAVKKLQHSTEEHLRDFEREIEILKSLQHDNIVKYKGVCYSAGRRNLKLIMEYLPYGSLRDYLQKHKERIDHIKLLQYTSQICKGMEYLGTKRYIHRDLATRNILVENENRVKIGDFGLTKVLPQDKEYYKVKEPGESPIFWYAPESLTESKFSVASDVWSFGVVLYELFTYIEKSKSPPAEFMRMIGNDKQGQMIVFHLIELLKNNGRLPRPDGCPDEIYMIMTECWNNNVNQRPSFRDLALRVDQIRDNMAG
In short: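 TR-FRET (LANCE) read-out, ex 340/em 665 nm with 100 μs delay, after 1 hr room-temperature detection with europium anti-phosphotyrosine antibody and 20 mM EDTA. The preceding 1 hr kinase reaction combined JAK2, ULight-JAK1 substrate and ATP, added as 6 ng/mL, 300 nM and 45 μM solutions; enzyme-free wells defined 100% inhibition.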

JAK3 = biological target: T3, JAK3 (Homo sapiens, UniProt P52333); assay: JAK3 enzyme inhibition test (LANCE method); details: 1 μM test compound; for inhibition at 1 µM: read-out: JAK3 enzyme inhibitory activity (%, 1 μM)
T3 construct: purchased Invitrogen
T3 sequence (P52333 1-1124): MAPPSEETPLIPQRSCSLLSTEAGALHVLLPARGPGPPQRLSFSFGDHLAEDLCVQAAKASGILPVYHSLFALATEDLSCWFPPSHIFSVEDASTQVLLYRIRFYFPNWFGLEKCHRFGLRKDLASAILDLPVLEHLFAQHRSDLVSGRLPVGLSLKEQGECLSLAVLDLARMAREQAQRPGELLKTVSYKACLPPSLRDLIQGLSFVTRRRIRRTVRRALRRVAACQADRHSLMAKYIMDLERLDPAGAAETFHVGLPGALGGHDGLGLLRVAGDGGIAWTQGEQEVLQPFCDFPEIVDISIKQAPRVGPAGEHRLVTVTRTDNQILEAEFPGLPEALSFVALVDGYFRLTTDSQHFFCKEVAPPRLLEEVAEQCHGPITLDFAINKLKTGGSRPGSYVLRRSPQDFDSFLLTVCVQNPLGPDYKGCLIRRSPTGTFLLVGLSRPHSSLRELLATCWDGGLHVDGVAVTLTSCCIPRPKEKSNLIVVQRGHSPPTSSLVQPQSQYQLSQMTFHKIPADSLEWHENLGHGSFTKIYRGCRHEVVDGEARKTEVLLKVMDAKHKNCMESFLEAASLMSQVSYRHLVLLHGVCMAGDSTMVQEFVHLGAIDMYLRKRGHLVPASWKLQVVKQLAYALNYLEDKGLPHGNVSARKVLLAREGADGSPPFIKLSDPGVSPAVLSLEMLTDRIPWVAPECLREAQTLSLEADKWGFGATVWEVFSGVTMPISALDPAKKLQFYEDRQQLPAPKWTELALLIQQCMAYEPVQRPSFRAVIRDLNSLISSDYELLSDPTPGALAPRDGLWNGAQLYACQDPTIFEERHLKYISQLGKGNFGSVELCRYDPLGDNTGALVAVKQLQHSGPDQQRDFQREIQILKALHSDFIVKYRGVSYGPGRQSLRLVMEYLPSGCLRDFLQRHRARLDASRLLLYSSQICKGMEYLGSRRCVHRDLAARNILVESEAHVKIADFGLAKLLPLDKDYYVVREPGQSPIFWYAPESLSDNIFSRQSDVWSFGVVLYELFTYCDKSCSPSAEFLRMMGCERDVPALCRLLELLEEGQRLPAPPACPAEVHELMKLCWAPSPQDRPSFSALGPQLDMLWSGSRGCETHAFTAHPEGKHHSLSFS
In short: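 TR-FRET (LANCE) read: 1 h room-temperature reaction, EDTA quench, Eu-anti-phosphotyrosine antibody, emission 665 nm after 340 nm excitation. Added solutions held 12 ng/mL JAK3, 300 nM ULight-JAK1 substrate and 15 μM ATP (pH 7.5 HEPES). Activity expressed against no-enzyme wells defined as full inhibition.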

TYK2 = biological target: T4, TYK2 (Homo sapiens, UniProt P29597); assay: TYK2 enzyme inhibition test (LANCE method); details: 1 μM test compound; for inhibition at 1 µM: read-out: TYK2 enzyme inhibitory activity (%, 1 μM)
T4 construct: purchased Invitrogen
T4 sequence (P29597 whole entry): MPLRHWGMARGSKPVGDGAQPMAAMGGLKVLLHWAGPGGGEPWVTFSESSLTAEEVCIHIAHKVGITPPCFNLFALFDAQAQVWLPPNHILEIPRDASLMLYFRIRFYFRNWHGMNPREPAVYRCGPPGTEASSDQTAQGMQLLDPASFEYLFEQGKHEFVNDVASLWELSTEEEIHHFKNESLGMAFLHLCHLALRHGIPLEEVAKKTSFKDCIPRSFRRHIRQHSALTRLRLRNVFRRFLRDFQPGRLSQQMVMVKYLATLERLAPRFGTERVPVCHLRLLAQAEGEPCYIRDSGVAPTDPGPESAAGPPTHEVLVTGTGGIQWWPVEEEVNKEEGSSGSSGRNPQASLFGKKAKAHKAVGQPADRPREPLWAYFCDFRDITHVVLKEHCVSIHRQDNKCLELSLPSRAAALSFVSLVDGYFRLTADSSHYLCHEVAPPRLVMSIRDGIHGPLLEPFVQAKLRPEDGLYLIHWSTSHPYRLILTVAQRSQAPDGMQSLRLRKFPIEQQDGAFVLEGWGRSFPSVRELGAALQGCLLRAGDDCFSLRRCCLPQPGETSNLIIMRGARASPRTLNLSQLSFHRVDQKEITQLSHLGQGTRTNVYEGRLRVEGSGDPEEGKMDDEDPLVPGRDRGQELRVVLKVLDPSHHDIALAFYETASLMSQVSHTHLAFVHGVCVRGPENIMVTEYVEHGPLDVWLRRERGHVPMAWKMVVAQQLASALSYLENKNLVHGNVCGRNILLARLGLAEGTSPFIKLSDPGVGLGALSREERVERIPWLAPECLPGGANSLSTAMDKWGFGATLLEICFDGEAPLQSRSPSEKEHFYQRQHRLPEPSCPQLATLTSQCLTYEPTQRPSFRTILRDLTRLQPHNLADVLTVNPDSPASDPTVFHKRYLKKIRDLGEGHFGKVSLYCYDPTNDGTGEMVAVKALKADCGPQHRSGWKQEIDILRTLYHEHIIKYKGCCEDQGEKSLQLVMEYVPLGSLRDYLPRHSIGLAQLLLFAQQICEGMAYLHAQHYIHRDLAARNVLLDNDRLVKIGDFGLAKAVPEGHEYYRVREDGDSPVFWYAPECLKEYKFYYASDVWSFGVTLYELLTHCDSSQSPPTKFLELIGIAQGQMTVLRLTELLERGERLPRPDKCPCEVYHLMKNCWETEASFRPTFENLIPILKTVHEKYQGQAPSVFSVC
In short: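 TR-FRET (LANCE) readout: after 1 h room-temperature kinase reaction, EDTA plus 4 nM Eu-labelled anti-phosphotyrosine antibody added, signal at 665 nm (340 nm excitation). Reaction combined TYK2, ULight-JAK1 substrate and ATP, prepared at 375 ng/mL, 300 nM and 30 μM before addition, in pH 7.5 HEPES/MgCl2 buffer; enzyme-free wells define full inhibition.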

T1 sequence (P23458 whole entry): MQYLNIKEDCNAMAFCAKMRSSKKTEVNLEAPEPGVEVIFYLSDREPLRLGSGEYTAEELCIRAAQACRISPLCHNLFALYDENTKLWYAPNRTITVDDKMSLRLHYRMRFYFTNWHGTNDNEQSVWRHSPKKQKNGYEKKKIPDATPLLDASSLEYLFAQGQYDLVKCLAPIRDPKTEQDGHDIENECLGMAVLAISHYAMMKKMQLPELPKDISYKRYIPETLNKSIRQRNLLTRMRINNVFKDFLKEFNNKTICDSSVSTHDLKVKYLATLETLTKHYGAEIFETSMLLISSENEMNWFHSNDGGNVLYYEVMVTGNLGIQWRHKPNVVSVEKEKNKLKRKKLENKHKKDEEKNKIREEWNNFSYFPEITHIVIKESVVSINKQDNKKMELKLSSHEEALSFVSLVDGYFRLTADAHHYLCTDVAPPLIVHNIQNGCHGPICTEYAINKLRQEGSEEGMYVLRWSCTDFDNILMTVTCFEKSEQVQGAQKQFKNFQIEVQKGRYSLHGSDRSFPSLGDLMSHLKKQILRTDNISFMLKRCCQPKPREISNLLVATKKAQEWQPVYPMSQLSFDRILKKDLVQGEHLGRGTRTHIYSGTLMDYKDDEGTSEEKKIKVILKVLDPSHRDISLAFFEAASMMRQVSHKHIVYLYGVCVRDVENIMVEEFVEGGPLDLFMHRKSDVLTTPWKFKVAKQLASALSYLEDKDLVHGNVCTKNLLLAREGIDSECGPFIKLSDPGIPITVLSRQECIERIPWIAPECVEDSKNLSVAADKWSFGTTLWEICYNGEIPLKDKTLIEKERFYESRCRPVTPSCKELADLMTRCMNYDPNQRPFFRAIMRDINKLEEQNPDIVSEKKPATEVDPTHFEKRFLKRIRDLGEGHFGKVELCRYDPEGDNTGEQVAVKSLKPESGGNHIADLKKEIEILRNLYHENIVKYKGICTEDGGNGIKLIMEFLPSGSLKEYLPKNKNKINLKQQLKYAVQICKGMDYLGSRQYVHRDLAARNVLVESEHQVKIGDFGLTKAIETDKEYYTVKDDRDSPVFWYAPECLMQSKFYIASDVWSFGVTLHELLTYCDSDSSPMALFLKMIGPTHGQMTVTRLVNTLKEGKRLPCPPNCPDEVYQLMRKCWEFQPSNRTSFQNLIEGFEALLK

| Compound | inhibition at 1 µM (JAK1) [%] | inhibition at 1 µM (JAK2) [%] | inhibition at 1 µM (JAK3) [%] | inhibition at 1 µM (TYK2) [%] | JAK1 enzyme inhibitory activity (%, 1 μM) (JAK1) [%] | JAK2 enzyme inhibitory activity (%, 1 μM) (JAK2) [%] | JAK3 enzyme inhibitory activity (%, 1 μM) (JAK3) [%] | TYK2 enzyme inhibitory activity (%, 1 μM) (TYK2; 1 µM) [%] | JAK2 enzyme inhibitory activity (%, 1 μM) (JAK2; 1 µM) [%] | JAK3 enzyme inhibitory activity (%, 1 μM) (JAK3; 1 µM) [%] | TYK2 enzyme inhibitory activity (%, 1 μM) (TYK2) [%] |
| --- | --- | --- | --- | --- | --- | --- | --- | --- | --- | --- | --- |
| CNC(=O)c1cc(-c2cn(-c3c(F)cccc3F)c(=O)c3c(N)n[nH]c23)nn1C [Example 65, 3-(3-amino-5-(2,6-difluorophenyl)-4-oxo-4,5-dihydro-1H-pyrazolo[4,3-c]pyridin-7-yl)-N,1-dimethyl-1H-pyrazole-5-carboxamide] | 99 | 98 | 100 | 100 | – | – | – | – | – | – | – |
| Cn1nc(-c2cn(-c3c(F)cccc3F)c(=O)c3c(N)n[nH]c23)cc1C(=O)N1CCOCC1 [Example 66, 3-amino-5-(2,6-difluorophenyl)-7-(1-methyl-5-(morpholin-4-ylcarbonyl)-1H-pyrazol-3-yl)-1,5-dihydro-4H-pyrazolo[4,3-c]pyridin-4-one] | 99 | 99 | 100 | 100 | – | – | – | – | – | – | – |
| Cn1nc(-c2cn(-c3c(F)cccc3C#N)c(=O)c3c(N)n[nH]c23)cc1N1CCOCC1 [Example 67, 2-(3-amino-7-(1-methyl-5-(morpholin-4-yl)-1H-pyrazol-3-yl)-4-oxo-1,4-dihydro-5H-pyrazolo[4,3-c]pyridin-5-yl)-3-fluorobenzonitrile] | 98 | 97 | 99 | 100 | – | – | – | – | – | – | – |
| Cn1nc(-c2cn(-c3c(F)cccc3C#N)c(=O)c3c(N)n[nH]c23)cc1C1=CCOCC1 [Example 68, 2-(3-amino-7-(5-(3,6-dihydro-2H-pyran-4-yl)-1-methyl-1H-pyrazol-3-yl)-4-oxo-1,4-dihydro-5H-pyrazolo[4,3-c]pyridin-5-yl)-3-fluorobenzonitrile] | 99 | 97 | 99 | 99 | – | – | – | – | – | – | – |
| Cn1nc(-c2cn(-c3c(F)cccc3C#N)c(=O)c3c(N)n[nH]c23)cc1C1CCOCC1 [Example 69, 2-(3-amino-7-(1-methyl-5-(tetrahydro-2H-pyran-4-yl)-1H-pyrazol-3-yl)-4-oxo-1,4-dihydro-5H-pyrazolo[4,3-c]pyridin-5-yl)-3-fluorobenzonitrile] | 97 | 96 | 98 | 99 | – | – | – | – | – | – | – |
| CN1CCN(c2cc(-c3cn(-c4c(F)cccc4C#N)c(=O)c4c(N)n[nH]c34)nn2C)CC1 [Example 70, 2-(3-amino-7-(1-methyl-5-(4-methylpiperazin-1-yl)-1H-pyrazol-3-yl)-4-oxo-1,4-dihydro-5H-pyrazolo[4,3-c]pyridin-5-yl)-3-fluorobenzonitrile] | 97 | 96 | 99 | 100 | – | – | – | – | – | – | – |

The next lines start with the values.

| inhibition at 1 µM (JAK1) [%] | inhibition at 1 µM (JAK2) [%] | inhibition at 1 µM (JAK3) [%] | inhibition at 1 µM (TYK2) [%] | JAK1 enzyme inhibitory activity (%, 1 μM) (JAK1) [%] | JAK2 enzyme inhibitory activity (%, 1 μM) (JAK2) [%] | JAK3 enzyme inhibitory activity (%, 1 μM) (JAK3) [%] | TYK2 enzyme inhibitory activity (%, 1 μM) (TYK2; 1 µM) [%] | JAK2 enzyme inhibitory activity (%, 1 μM) (JAK2; 1 µM) [%] | JAK3 enzyme inhibitory activity (%, 1 μM) (JAK3; 1 µM) [%] | TYK2 enzyme inhibitory activity (%, 1 μM) (TYK2) [%] | Compound |
| --- | --- | --- | --- | --- | --- | --- | --- | --- | --- | --- | --- |
| 99 | 99 | 99 | 99 | – | – | – | – | – | – | – | CC(C)[C@H](C)n1cc(-c2cc(C(C)(C)C#N)n(C)n2)c2[nH]nc(N)c2c1=O [Example 57, 2-(3-(3-amino-5-((2S)-3-methylbutan-2-yl)-4-oxo-4,5-dihydro-1H-pyrazolo[4,3-c]pyridin-7-yl)-1-methyl-1H-pyrazol-5-yl)-2-methylpropanenitrile] |
| 97 | 99 | 100 | 100 | – | – | – | – | – | – | – | CC(C)[C@H](C)n1cc(-c2cc(C3CCOCC3)n(C)n2)c2[nH]nc(N)c2c1=O [Example 58] |
| – | – | – | – | 97 | 98 | 99 | 100 | – | – | – | CC1CN(c2cc(-c3cn([C@@H](C)C(C)C)c(=O)c4c(N)n[nH]c34)nn2C)CCO1 (stereo partly drawn) [Example 59, 3-amino-5-((2S)-3-methylbutan-2-yl)-7-(1-methyl-5-(2-methylmorpholin-4-yl)-1H-pyrazol-3-yl)-1,5-dihydro-4H-pyrazolo[4,3-c]pyridin-4-one] |
| – | – | – | – | 96 | 98 | 99 | 99 | – | – | – | CC1CN(c2cc(-c3cn([C@@H](C)C(C)C)c(=O)c4c(N)n[nH]c34)nn2C)CCO1 (stereo partly drawn) [Example 60, 3-amino-5-((2S)-3-methylbutan-2-yl)-7-(1-methyl-5-(2-methylmorpholin-4-yl)-1H-pyrazol-3-yl)-1,5-dihydro-4H-pyrazolo[4,3-c]pyridin-4-one] |
| – | – | – | – | 97 | – | – | – | 99 | 100 | 99 | CC(C)[C@H](C)n1cc(-c2cc(N3CCN4CCCC4C3)n(C)n2)c2[nH]nc(N)c2c1=O (stereo partly drawn) [Example 61, 3-amino-7-(5-(hexahydropyrrolo[1,2-a]pyrazin-2 (H)-yl)-1-methyl-1H-pyrazol-3-yl)-5-((2S)-3-methylbutan-2-yl)-1,5-dihydro-4H-pyrazolo[4,3-c]pyridin-4-one] |
| – | – | – | – | 97 | – | – | – | 99 | 99 | 99 | CC(C)[C@H](C)n1cc(-c2cc(N3CCN4CCCC4C3)n(C)n2)c2[nH]nc(N)c2c1=O (stereo partly drawn) [Example 62, 3-amino-7-(5-(hexahydropyrrolo[1,2-a]pyrazin-2 (H)-yl)-1-methyl-1H-pyrazol-3-yl)-5-((2S)-3-methylbutan-2-yl)-1,5-dihydro-4H-pyrazolo[4,3-c]pyridin-4-one] |
| – | – | – | – | 96 | – | – | 99 | 99 | 100 | – | CC(C)[C@H](C)n1cc(-c2cc(N3CCC(C)(O)C3)n(C)n2)c2[nH]nc(N)c2c1=O (stereo partly drawn) [Example 63, 3-amino-7-(5-(3-hydroxy-3-methylpyrrolidin-1-yl)-1-methyl-1H-pyrazol-3-yl)-5-((2S)-3-methylbutan-2-yl)-1,5-dihydro-4H-pyrazolo[4,3-c]pyridin-4-one] |
| – | – | – | – | 97 | – | – | 100 | 99 | 99 | – | CC(C)[C@H](C)n1cc(-c2cc(N3CCC(C)(O)C3)n(C)n2)c2[nH]nc(N)c2c1=O (stereo partly drawn) [Example 64, 3-amino-7-(5-(3-hydroxy-3-methylpyrrolidin-1-yl)-1-methyl-1H-pyrazol-3-yl)-5-((2S)-3-methylbutan-2-yl)-1,5-dihydro-4H-pyrazolo[4,3-c]pyridin-4-one] |
| 98 | 97 | 98 | 99 | – | – | – | – | – | – | – | Cn1nc(-c2cn(-c3c(F)cccc3C#N)c(=O)c3c(N)n[nH]c23)cc1C(C)(C)O [Example 71, 2-(3-amino-7-(5-(2-hydroxypropan-2-yl)-1-methyl-1H-pyrazol-3-yl)-4-oxo-1,4-dihydro-5H-pyrazolo[4,3-c]pyridin-5-yl)-3-fluorobenzonitrile] |
